Data reported in patent US12624018B1, “Inhibitors of RIPK2 and medical uses thereof” (Odyssey Therapeutics, Inc., priority 2022, dated 2026).

Target: T1, RIPK2 enzyme (Homo sapiens, UniProt O43353)
T1 construct: purchased Carna 09-128
Assay: RIPK2 inhibition (ADP-Glo Kinase Assay)
Type: biochemical
Conditions: RIPK2 5 nM, ATP 150 μM, MBP substrate, read-out: RIPK2 IC50
Experimental: RIPK2 inhibition was measured as follows:
The V9102 ADP-Glo Kinase Assay (including ultrapure ATP, 10 mM) was purchased from Promega. Native swine MBP was used as the substrate for the reaction and was purchased from SignalChem Biotech (catalogue number M42-51N). Assay buffer used for the assay consisted of the following components: MgCl2 (final concentration of 10 mM), Brij-35 (0.01%), DTT (final concentration of 2 mM), BSA (0.05%), EGTA (final concentration of 1 mM), and HEPE (pH 7.5 at final concentration of 50 mM).
Method: In a 384 well plate, 10 nL of test compound was dispensed using Echo550 and mixed with RIPK2 enzyme (final concentration of 5 nM) in assay buffer for 30 minutes at room temperature. […] Then ADP-Glo reagent was added and incubated for 60 min at room temperature. Last, Kinase Detection Reagent was added to the mixture and incubated for 60 min. The resulting luminescent signal was measured with an Envision reader to determine the amount of ADP produced. All plates contained vehicle controls (10 nL DMSO only) as a reference for the high control (0% kinase inhibition), and wells with no RIPK2 enzyme as reference for low control (100% kinase inhibition). Data were analyzed to determine the percent inhibition of ADP production in the presence of test compound using both low and high controls.

T1 sequence (O43353 1-299 limits assumed): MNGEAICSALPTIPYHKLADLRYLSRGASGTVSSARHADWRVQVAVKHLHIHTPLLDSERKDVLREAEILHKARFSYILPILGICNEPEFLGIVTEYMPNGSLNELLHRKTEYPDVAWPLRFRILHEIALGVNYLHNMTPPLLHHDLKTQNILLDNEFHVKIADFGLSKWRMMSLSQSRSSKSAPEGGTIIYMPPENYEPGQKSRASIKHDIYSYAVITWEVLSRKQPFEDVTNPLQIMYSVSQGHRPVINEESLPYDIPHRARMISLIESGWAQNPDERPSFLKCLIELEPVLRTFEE

Point of comparison: `COc1ccc2ncnc(Oc3cnc(C(C)C(=O)Nc4cnn(C(C)(C)C)c4)c(F)c3)c2c1` (single isomer, unassigned) [Compound 11, N-(1-(tert-butyl)-1H-pyrazol-4-yl)-2-(3-fluoro-5-((6-methoxyquinazolin-4-yl)oxy)pyridin-2-yl)propanamide], IC50 70.7 nM. Against it:
- Cc1cc(CC(=O)Nc2cnn(C(C)(C)C)c2)ccc1Oc1ccnc2ccc(OC3CCNCC3C)cc12 (racemic) [Compound 187] — lower, < 2.5 nM
- Cc1cc(CC(=O)Nc2cnn(C(C)(C)C)c2)ccc1Oc1ccnc2ccc(OC3CCNCC3C)cc12 (racemic) [Compound 188, N-(1-(tert-butyl)-1H-pyrazol-4-yl)-2-(3-methyl-4-((6-((-3-methyl-piperidin-4-yl)oxy)quinolin-4-yl)oxy)phenyl) acetamide] — lower, < 2.5 nM
- Cc1cc(CC(=O)Nc2cnn(C(C)(C)C)c2)ccc1Oc1ccnc2ccc(OC3CCNCC3O)cc12 (racemic) [Compound 189, N-(1-(tert-butyl)-1H-pyrazol-4-yl)-2-(4-((6-((-3-hydroxy-piperidin-4-yl)oxy)quinolin-4-yl)oxy)-3-methylphenyl) acetamide] — lower, < 2.5 nM
- Cc1cc(CC(=O)Nc2cnn(C(C)(C)C)c2)ccc1Oc1ccnc2ccc(OC3CCNC(C)C3)cc12 (racemic) [Compound 220, N-(1-(tert-butyl)-1H-pyrazol-4-yl)-2-(3-methyl-4-((6-((-2-methyl-piperidin-4-yl)oxy)quinolin-4-yl)oxy)phenyl) acetamide] — lower, < 2.5 nM
- Cc1cc(CC(=O)Nc2cnn(C(C)(C)C)c2)ccc1Oc1ccnc2ccc(OC3CCNC(C)C3)cc12 (racemic) [Compound 221, N-(1-(tert-butyl)-1H-pyrazol-4-yl)-2-(3-methyl-4-((6-((-2-methyl-piperidin-4-yl)oxy)quinolin-4-yl)oxy)phenyl) acetamide] — lower, < 2.5 nM
- Cc1cc(CC(=O)Nc2cnn(C(C)(C)C)c2)ccc1Oc1ccnc2ccc(OC3CCNCC3F)cc12 (racemic) [Compound 237, N-(1-(tert-butyl)-1H-pyrazol-4-yl)-2-(4-((6-((-3-fluoro-piperidin-4-yl)oxy)quinolin-4-yl)oxy)-3-methylphenyl) acetamide] — lower, < 2.5 nM
- Cc1cc(CC(=O)Nc2cnn(C(C)(C)C)c2)ccc1Oc1ccnc2ccc(OC3CCNCC3F)cc12 (racemic) [Compound 238, N-(1-(tert-butyl)-1H-pyrazol-4-yl)-2-(4-((6-((-3-fluoro-piperidin-4-yl)oxy)quinolin-4-yl)oxy)-3-methylphenyl) acetamide] — lower, < 2.5 nM
- CC(C)(C)n1cc(NC(=O)Cc2ccc(Oc3ccnc4ccc(S(C)(=N)=O)cc34)cc2F)cn1 (single isomer, unassigned) [Compound 69, N-(1-(tert-butyl)-1H-pyrazol-4-yl)-2-(2-fluoro-4-((6-(S-methylsulfonimidoyl)quinolin-4-yl)oxy)phenyl)acetamide] — 10-fold lower, 6.9 nM
- CC(C)(C)n1cc(NC(=O)Cc2ccc(Oc3ccnc4ccc(S(C)(=N)=O)cc34)cc2F)cn1 (single isomer, unassigned) [Compound 70, N-(1-(tert-butyl)-1H-pyrazol-4-yl)-2-(2-fluoro-4-((6-(S-methylsulfonimidoyl)quinolin-4-yl)oxy)phenyl)acetamide] — 14-fold lower, 5.1 nM
- CN(C)C1CCN(c2ccc3nccc(Oc4cnc(CC(=O)Nc5cnn(C(C)(C)C)c5)c(F)c4)c3c2)C1 (single isomer, unassigned) [Compound 140, N-(1-(tert-butyl)-1H-pyrazol-4-yl)-2-(5-((6-(3-(dimethylamino)pyrrolidin-1-yl)quinolin-4-yl)oxy)-3-fluoropyridin-2-yl)acetamide] — 9.6-fold lower, 7.4 nM
- CN(C)C1CCN(c2ccc3nccc(Oc4cnc(CC(=O)Nc5cnn(C(C)(C)C)c5)c(F)c4)c3c2)C1 (single isomer, unassigned) [Compound 141, N-(1-(tert-butyl)-1H-pyrazol-4-yl)-2-(5-((6-(3-(dimethylamino)pyrrolidin-1-yl)quinolin-4-yl)oxy)-3-fluoropyridin-2-yl)acetamide] — 6.9-fold lower, 10.3 nM
- Cc1cc(CC(=O)Nc2cnn(C(C)(C)C)c2)ccc1Oc1ccnc2ccc(OCC3CCCN3)cc12 (single isomer, unassigned) [Compound 190, N-(1-(tert-butyl)-1H-pyrazol-4-yl)-2-(3-methyl-4-((6-(pyrrolidin-2-ylmethoxy)quinolin-4-yl)oxy)phenyl) acetamide] — lower, < 2.5 nM
- Cc1cc(CC(=O)Nc2cnn(C(C)(C)C)c2)ccc1Oc1ccnc2ccc(OCC3CCCN3)cc12 (single isomer, unassigned) [Compound 191, N-(1-(tert-butyl)-1H-pyrazol-4-yl)-2-(3-methyl-4-((6-(pyrrolidin-2-ylmethoxy)quinolin-4-yl)oxy)phenyl) acetamide] — lower, < 2.5 nM
- CC(C)(C)n1cc(NC(=O)Cc2ccc(Oc3ccnc4ccc(S(C)(=N)=O)cc34)c(Cl)c2)cn1 (single isomer, unassigned) [Compound 196, N-(1-(tert-butyl)-1H-pyrazol-4-yl)-2-(3-chloro-4-((6-(S-methylsulfonimidoyl)quinolin-4-yl)oxy)phenyl)acetamide] — lower, < 2.5 nM
- Cc1cc(CC(=O)Nc2cnn(C(C)(C)C)c2)ccc1Oc1ccnc2ccc(S(=O)(=O)C3CCOC3)cc12 (single isomer, unassigned) [Compound 199, N-(1-(tert-butyl)-1H-pyrazol-4-yl)-2-(3-methyl-4-((6-((tetrahydrofuran-3-yl)sulfonyl)quinolin-4-yl)oxy)phenyl)acetamide] — lower, < 2.5 nM
- Cc1cc(CC(=O)Nc2cnn(C(C)(C)C)c2)ccc1Oc1ccnc2ccc(S(=O)(=O)C3CCOC3)cc12 (single isomer, unassigned) [Compound 200, N-(1-(tert-butyl)-1H-pyrazol-4-yl)-2-(3-methyl-4-((6-((tetrahydrofuran-3-yl)sulfonyl)quinolin-4-yl)oxy)phenyl)acetamide] — lower, < 2.5 nM
- Cc1cc(CC(=O)Nc2cnn(C(C)(C)C)c2)ccc1Oc1ccnc2ccc(S(=O)(=O)C3CCNC3)cc12 (single isomer, unassigned) [Compound 201, N-(1-(tert-butyl)-1H-pyrazol-4-yl)-2-(3-methyl-4-((6-(pyrrolidin-3-ylsulfonyl)quinolin-4-yl)oxy)phenyl)acetamide] — lower, < 2.5 nM
- Cc1cc(CC(=O)Nc2cnn(C(C)(C)C)c2)ccc1Oc1ccnc2ccc(S(=O)(=O)C3CCNC3)cc12 (single isomer, unassigned) [Compound 202, N-(1-(tert-butyl)-1H-pyrazol-4-yl)-2-(3-methyl-4-((6-(pyrrolidin-3-ylsulfonyl)quinolin-4-yl)oxy)phenyl)acetamde] — lower, < 2.5 nM
- Cc1cc(CC(=O)Nc2cnn(C(C)(C)C)c2)ccc1Oc1ccnc2ccc(OCC(C)O)cc12 (single isomer, unassigned) [Compound 224, N-(1-(tert-butyl)-1H-pyrazol-4-yl)-2-(4-((6-(2-hydroxy-propoxy)quinolin-4-yl)oxy)-3-methylphenyl) acetamide] — lower, < 2.5 nM
- Cc1cc(CC(=O)Nc2cnn(C(C)(C)C)c2)ccc1Oc1ccnc2ccc(OCC(C)O)cc12 (single isomer, unassigned) [Compound 225, N-(1-(tert-butyl)-1H-pyrazol-4-yl)-2-(4-((6-(2-hydroxy-propoxy)quinolin-4-yl)oxy)-3-methylphenyl) acetamide] — lower, < 2.5 nM
- Cc1cc(CC(=O)Nc2cnn(C(C)(C)C)c2)ccc1Oc1ccnc2ccc(S(=O)(=O)CC3CCOC3)cc12 (single isomer, unassigned) [Compound 241, N-(1-(tert-butyl)-1H-pyrazol-4-yl)-2-(3-methyl-4-((6-(((tetrahydrofuran-3-yl)methyl)sulfonyl)quinolin-4-yl)oxy)phenyl)acetamide] — lower, < 2.5 nM
- Cc1cc(CC(=O)Nc2cnn(C(C)(C)C)c2)ccc1Oc1ccnc2ccc(S(=O)(=O)CC3CCOC3)cc12 (single isomer, unassigned) [Compound 242, N-(1-(tert-butyl)-1H-pyrazol-4-yl)-2-(3-methyl-4-((6-(((tetrahydrofuran-3-yl)methyl)sulfonyl)quinolin-4-yl)oxy)phenyl)acetamide] — lower, < 2.5 nM
- Cc1c(Oc2ccnc3ccc(S(=O)(=O)C4CCOC4)cc23)ccc(CC(=O)Nc2cnn(C(C)(C)C)c2)c1F (single isomer, unassigned) [Compound 250, N-(1-(tert-butyl)-1H-pyrazol-4-yl)-2-(2-fluoro-3-methyl-4-((6-((tetrahydrofuran-3-yl)sulfonyl)quinolin-4-yl)oxy)phenyl)acetamide] — lower, < 2.5 nM
- Cc1c(Oc2ccnc3ccc(S(=O)(=O)C4CCOC4)cc23)ccc(CC(=O)Nc2cnn(C(C)(C)C)c2)c1F (single isomer, unassigned) [Compound 251, N-(1-(tert-butyl)-1H-pyrazol-4-yl)-2-(2-fluoro-3-methyl-4-((6-((tetrahydrofuran-3-yl)sulfonyl)quinolin-4-yl)oxy)phenyl)acetamide] — lower, < 2.5 nM
- Cc1cc(CC(=O)Nc2cnn(C(C)(C)C)c2)ccc1Oc1ccnc2ccc(S(=O)(=O)C3CC(N)C3)cc12 (single isomer, unassigned) [Compound 282, 2-(4-((6-((-3-aminocyclobutyl)sulfonyl)quinolin-4-yl)oxy)-3-methylphenyl)-N-(1-(tert-butyl)-1H-pyrazol-4-yl)acetamide] — lower, < 2.5 nM
